The text below walks through data of paper PMC8383264, “Structural Characterization of the Reaction and Substrate Specificity Mechanisms of Pathogenic Fungal Acetyl-CoA Synthetases” (ACS Chemical Biology, 2021).

One test concerns the target C. immitis Acs1 (Coccidioides immitis, UniProt J3KJC6). The settings on record: 37 °C.
The target in the next test is C. posadasii Acs1 (Coccidioides posadasii, UniProt C5PGB4). Conditions: 37 °C.
A further test concerns the target CnAcs1 (Cryptococcus neoformans, UniProt J9VFT1). In words: Coupled continuous pyrophosphate detection assay (EnzChek) of ACS activity.
For another test, the target named is T1, A. fumigatus Acs1 (Aspergillus fumigatus, UniProt Q4WQ02).
T1 sequence (Q4WQ02 2-670): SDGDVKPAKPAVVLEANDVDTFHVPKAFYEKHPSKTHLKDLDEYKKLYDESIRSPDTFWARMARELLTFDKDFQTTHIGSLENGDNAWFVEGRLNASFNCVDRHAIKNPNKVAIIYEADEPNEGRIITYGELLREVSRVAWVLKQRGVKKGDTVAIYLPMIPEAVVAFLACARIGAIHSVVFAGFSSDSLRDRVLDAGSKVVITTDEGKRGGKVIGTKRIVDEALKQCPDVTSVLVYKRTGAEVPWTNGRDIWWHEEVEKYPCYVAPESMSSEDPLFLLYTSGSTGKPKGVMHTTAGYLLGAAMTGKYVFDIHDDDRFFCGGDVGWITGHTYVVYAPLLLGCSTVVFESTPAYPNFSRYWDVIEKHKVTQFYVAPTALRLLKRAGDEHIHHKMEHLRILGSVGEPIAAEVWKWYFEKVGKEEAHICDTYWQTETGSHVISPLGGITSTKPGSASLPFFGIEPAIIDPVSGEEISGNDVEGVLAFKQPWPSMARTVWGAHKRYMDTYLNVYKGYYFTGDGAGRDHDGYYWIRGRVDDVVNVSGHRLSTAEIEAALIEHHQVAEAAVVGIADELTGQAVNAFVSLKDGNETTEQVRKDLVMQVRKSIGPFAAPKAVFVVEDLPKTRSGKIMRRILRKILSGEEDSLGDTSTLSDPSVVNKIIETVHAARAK
Described as above. The settings on record: substrate Km; other substrates in excess; 37 °C; ±S.E.M.

The target in the next test is C. albicans Acs1 (Candida albicans, UniProt Q8NJN3). The test is described as above. Conditions: 37 °C.
Sequence of C. albicans Acs1 (Q8NJN3 2-671 limits assumed): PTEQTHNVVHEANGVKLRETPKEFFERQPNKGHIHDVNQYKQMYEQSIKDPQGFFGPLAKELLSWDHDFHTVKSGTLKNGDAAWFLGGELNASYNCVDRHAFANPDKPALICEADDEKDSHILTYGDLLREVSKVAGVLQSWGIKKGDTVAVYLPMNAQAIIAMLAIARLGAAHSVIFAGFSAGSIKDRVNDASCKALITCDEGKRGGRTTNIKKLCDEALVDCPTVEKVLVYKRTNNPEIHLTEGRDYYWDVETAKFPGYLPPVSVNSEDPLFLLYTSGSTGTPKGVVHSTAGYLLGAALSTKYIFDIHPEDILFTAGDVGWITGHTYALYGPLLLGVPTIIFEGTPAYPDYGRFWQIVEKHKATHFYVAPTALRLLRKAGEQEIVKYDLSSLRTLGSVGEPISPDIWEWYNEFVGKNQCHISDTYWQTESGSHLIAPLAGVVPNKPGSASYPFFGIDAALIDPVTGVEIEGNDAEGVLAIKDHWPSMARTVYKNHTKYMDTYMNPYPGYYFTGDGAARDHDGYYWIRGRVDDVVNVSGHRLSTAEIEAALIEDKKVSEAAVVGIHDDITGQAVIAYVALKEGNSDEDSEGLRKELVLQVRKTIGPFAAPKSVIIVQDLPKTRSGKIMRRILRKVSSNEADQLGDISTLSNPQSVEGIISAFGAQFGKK
The target of another test is T2, S. cerevisiae Acs1 (Saccharomyces cerevisiae, UniProt Q01574).
T2 sequence (Q01574 1-713): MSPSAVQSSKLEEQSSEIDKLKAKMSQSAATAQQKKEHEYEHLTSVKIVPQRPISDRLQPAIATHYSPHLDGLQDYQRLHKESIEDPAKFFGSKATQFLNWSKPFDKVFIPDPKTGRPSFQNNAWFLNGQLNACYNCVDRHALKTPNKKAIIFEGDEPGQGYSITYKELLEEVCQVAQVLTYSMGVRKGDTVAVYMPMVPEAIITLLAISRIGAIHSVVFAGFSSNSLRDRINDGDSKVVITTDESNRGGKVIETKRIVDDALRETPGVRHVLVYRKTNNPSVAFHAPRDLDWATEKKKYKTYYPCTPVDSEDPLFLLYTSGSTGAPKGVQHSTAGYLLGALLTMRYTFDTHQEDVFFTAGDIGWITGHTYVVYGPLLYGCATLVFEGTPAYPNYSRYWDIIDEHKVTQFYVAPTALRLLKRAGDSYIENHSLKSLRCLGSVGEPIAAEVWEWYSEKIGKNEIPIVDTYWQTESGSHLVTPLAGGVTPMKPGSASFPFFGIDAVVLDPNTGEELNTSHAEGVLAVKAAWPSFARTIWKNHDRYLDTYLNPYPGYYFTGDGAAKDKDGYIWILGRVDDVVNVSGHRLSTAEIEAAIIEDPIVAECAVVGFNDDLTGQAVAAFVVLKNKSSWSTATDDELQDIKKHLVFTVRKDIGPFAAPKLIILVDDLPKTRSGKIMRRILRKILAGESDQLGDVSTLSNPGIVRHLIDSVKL
Described as above. Conditions: 37 °C.

SMILES strings stand for the structures.

Sequence of CnAcs1 (J9VFT1 entry or part of it): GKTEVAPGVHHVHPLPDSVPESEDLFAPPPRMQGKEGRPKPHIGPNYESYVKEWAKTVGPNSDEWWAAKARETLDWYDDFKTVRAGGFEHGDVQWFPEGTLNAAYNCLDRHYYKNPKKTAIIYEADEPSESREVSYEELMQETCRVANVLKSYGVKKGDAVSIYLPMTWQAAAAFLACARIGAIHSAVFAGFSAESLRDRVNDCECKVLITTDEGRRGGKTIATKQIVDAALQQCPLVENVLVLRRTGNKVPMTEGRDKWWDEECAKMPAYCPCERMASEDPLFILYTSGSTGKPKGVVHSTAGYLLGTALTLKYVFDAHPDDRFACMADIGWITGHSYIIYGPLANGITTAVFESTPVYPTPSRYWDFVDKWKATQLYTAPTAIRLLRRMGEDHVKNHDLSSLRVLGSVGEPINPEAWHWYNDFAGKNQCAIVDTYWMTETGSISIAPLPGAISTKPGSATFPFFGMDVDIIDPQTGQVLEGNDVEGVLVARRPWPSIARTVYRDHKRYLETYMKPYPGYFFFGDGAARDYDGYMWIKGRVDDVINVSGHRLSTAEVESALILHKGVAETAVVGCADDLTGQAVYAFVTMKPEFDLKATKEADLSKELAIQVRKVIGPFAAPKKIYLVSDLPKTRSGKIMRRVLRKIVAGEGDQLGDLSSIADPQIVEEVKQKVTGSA
Sequence of C. posadasii Acs1 (C5PGB4 2-691 limits assumed): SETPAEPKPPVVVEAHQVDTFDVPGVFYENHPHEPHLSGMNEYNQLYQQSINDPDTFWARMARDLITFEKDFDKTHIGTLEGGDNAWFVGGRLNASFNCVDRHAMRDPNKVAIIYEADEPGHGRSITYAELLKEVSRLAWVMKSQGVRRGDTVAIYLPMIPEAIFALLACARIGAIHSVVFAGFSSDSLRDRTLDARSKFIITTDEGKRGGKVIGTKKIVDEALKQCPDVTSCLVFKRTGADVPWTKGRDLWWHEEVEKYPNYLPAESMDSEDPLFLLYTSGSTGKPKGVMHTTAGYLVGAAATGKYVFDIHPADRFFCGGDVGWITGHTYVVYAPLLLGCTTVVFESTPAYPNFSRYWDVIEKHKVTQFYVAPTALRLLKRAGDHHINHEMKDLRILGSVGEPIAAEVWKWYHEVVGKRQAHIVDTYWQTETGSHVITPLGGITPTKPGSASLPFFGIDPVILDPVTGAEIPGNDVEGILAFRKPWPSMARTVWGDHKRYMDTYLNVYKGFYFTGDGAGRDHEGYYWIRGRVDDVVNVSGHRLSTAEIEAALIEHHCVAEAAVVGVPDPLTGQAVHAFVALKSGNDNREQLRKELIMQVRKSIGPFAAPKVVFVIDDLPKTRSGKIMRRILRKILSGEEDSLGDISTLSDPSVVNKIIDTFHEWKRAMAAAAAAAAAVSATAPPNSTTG
Sequence of C. immitis Acs1 (J3KJC6 2-691 limits assumed): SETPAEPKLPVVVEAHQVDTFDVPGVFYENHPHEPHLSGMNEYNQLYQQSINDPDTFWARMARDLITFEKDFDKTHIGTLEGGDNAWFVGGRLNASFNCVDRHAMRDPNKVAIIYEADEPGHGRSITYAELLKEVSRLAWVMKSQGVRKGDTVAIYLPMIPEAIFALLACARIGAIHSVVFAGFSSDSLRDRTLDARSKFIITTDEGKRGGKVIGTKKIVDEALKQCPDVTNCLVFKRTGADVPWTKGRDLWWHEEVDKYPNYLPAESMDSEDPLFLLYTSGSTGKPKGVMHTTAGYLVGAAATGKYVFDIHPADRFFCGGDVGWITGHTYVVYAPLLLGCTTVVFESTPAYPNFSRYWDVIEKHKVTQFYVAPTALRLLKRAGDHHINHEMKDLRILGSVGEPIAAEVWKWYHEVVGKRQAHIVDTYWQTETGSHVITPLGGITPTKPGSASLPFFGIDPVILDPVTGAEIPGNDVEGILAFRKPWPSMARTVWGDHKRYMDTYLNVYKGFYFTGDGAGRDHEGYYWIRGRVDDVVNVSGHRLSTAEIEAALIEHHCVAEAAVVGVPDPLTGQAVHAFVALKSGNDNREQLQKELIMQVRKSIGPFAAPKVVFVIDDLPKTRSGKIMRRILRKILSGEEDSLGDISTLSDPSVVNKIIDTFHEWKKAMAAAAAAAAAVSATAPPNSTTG

With `CC(=O)O` [acetate, reference compound], the Michaelis-Menten constant (Km) came to 32 ± 5 µM on C. immitis Acs1; 27 ± 2 µM at C. posadasii Acs1; 130 ± 40 µM at CnAcs1 (substrate Km, other substrates in excess (ATP 2.5 mM, CoA 1 mM, sodium acetate 0.5 mM), 37 °C, ±S.E.M.); 18 ± 2 µM at A. fumigatus Acs1; 79 ± 7 µM at C. albicans Acs1; 63 ± 13 µM on S. cerevisiae Acs1. For the same compound, the “utilization as substrate for CnAcs1” value at CnAcs1 (alternative acid substrates) is on record as “optimum substrate”. Moreover, the “calculated binding energy ΔG” value on CnAcs1 (calculated for substrate binding) was -5.5 kcal/mol.
